Counter-ions that a name gives are not always drawn.

This assay concerns BMP signal in MDA-231-D-BREFluc/Rluc cells. Briefly: BMP signal inhibitory effect (AlphaScreen SureFire SMAD1 p-Ser463/465, BMP-6 stimulation). The assay is classed as cell-based. As to conditions: BMP-6 stimulated MDA-231-D-BREFluc/Rluc cells, phospho-SMAD1 AlphaScreen; read-out: IC50. Here is the method:
BMP Signal Inhibitory Effect
A BMP signal inhibitory activity of a compound of the present invention was evaluated according to the following method.
MDA-231-D-BREFluc/Rluc cells prepared according to the method described in Y. Katsuno et al., Oncogene, 27, 6322 (2008) were incubated at 37° C. for 2 hours together with test compounds, and BMP-6 (commercially available from R&D System, 507-BM-020) was then added thereto, and the mixture was additionally incubated at 37° C. for 30 minutes. A Lysis Buffer and Acceptor mix of AlphaScreen SureFire SMAD1 (p-Ser463/465) assay kit (commercially available from Perkin Elmer, TGRSM1S10K) were sequentially added thereto, the mixture was incubated at room temperature for 2 hours, and AlphaScreen Protein A kit (commercially available from Perkin Elmer, 6760617) was then added thereto, and standard AlphaScreen settings of Alpha Technology—compatible plate reader (commercially available from Perkin Elmer, EnSpire) was used for measurement.
(In Alpha technology, singlet oxygen from a donor bead excites a nearby acceptor bead.)
Regarding `CCn1cc(-c2ccnc(Nc3cnn(C4CCOCC4)c3)n2)c(-c2cccnc2)n1` [Example 53, 4-(1-ethyl-3-(pyridin-3-yl)-1H-pyrazol-4-yl)-N-(1-(tetrahydro-2H-pyran-4-yl)-1H-pyrazol-4-yl)pyrimidin-2-amine], the IC50 is 22 nM.

On to `CCn1cc(-c2ccnc(Nc3cnn(C4CCN(CC(C)(C)O)CC4)c3)n2)c(-c2cccnc2)n1` [Example 54, 1-(4-(4-((4-(1-Ethyl-3-(pyridin-3-yl)-1H-pyrazol-4-yl)pyrimidin-2-yl)amino)-1H-pyrazol-1-yl)piperidin-1-yl)-2-methylpropan-2-ol], for which the IC50 stood at 8.2 nM.

Regarding `CCn1cc(-c2ccnc(Nc3cnn(C4CCN(CCOC)CC4)c3)n2)c(-c2cccnc2)n1` [Example 55, 4-(1-ethyl-3-(pyridin-3-yl)-1H-pyrazol-4-yl)-N-(1-(1-(2-methoxyethyl)piperidin-4-yl)-1H-pyrazol-4-yl)pyrimidin-2-amine oxalate], the IC50 was found to be 21.6 nM.

`CCn1cc(-c2ccnc(Nc3ccc(-c4nnc(C)s4)cc3)n2)c(-c2cccnc2)n1` [Example 56, 4-(1-Ethyl-3-(pyridin-3-yl)-1H-pyrazol-4-yl)-N-(4-(5-methyl-1,3,4-thiadiazol-2-yl)phenyl)pyrimidin-2-amine]: the IC50 was 17.6 nM.

`COCCN1CCC(c2ccc(Nc3nccc(-c4cn(CCOC)nc4-c4cccnc4)n3)cc2)CC1` [Example 57, 4-(1-(2-methoxyethyl)-3-(pyridin-3-yl)-1H-pyrazol-4-yl)-N-(4-(1-(2-methoxyethyl)piperidin-4-yl)phenyl)pyrimidin-2-amine]: the half-maximal inhibitory concentration (IC50) was 13 nM.

Consider `CCn1cc(-c2ccnc(Nc3ccc(C4CCN(CCOC)CC4)cc3)n2)c(-c2cccnc2)n1` [Example 58, 4-(1-ethyl-3-(pyridin-3-yl)-1H-pyrazol-4-yl)-N-(4-(1-(2-methoxyethyl)piperidin-4-yl)phenyl)pyrimidin-2-amine], for which the IC50 was 4.4 nM.

Take `CCn1cc(-c2ccnc(Nc3ccc(C4CCN(C(=O)CO)CC4)cc3)n2)c(-c2cccnc2)n1` [Example 59, 1-(4-(4-((4-(1-ethyl-3-(pyridin-3-yl)-1H-pyrazol-4-yl)pyrimidin-2-yl)amino)phenyl)piperidin-1-yl)-2-hydroxyethan-1-one]: the IC50 was found to be 25.2 nM.

For `COCCn1cc(-c2ccnc(Nc3ccc4c(c3)CN(C)C4)n2)c(-c2cccnc2)n1` [Example 60, N-(4-(1-(2-methoxyethyl)-3-(pyridin-3-yl)-1H-pyrazol-4-yl)pyrimidin-2-yl)-2-methylisoindolin-5-amine], the IC50 is 6.4 nM.

Consider `CCn1cc(-c2ccnc(Nc3ccc4c(c3)CN(CCOC)C4)n2)c(-c2cccnc2)n1` [Example 61, N-(4-(1-ethyl-3-(pyridin-3-yl)-1H-pyrazol-4-yl)pyrimidin-2-yl)-2-(2-methoxyethyl)isoindolin-5-amine], for which the IC50 is 7 nM.

With `COCCN1Cc2ccc(Nc3nccc(-c4cn(CCOC)nc4-c4cccnc4)n3)cc2C1` [Example 62, 2-(2-Methoxyethyl)-N-(4-(1-(2-methoxyethyl)-3-(pyridin-3-yl)-1H-pyrazol-4-yl)pyrimidin-2-yl)isoindolin-5-amine], the concentration for half-maximal inhibition (IC50) came to 10 nM.

With `CN1Cc2ccc(Nc3nccc(-c4cn(CC(C)(C)O)nc4-c4cccnc4)n3)cc2C1` [Example 63, 2-Methyl-1-(4-(2-((2-methylisoindolin-5-yl)amino)pyrimidin-4-yl)-3-(pyridin-3-yl)-1H-pyrazol-1-yl)propan-2-ol], the IC50 is 3.9 nM.

With `COCCn1cc(-c2ccnc(Nc3ccc4c(c3)CCN(C)C4)n2)c(-c2cccnc2)n1` [Example 64, N-(4-(1-(2-Methoxyethyl)-3-(pyridin-3-yl)-1H-pyrazol-4-yl)pyrimidin-2-yl)-2-methyl-1,2,3,4-tetrahydroisoquinolin-6-amine], the IC50 was 4 nM.

In the case of `CN1CCc2cc(Nc3nccc(-c4cn(CC(C)(C)O)nc4-c4cccnc4)n3)ccc2C1` [Example 65, 2-Methyl-1-(4-(2-((2-methyl-1,2,3,4-tetrahydroisoquinolin-6-yl)amino)pyrimidin-4-yl)-3-(pyridin-3-yl)-1H-pyrazol-1-yl)propan-2-ol], the IC50 amounted to 3.3 nM.

For `CCn1cc(-c2ccnc(Nc3ccc4c(c3)CCN(C3CC3)CC4)n2)c(-c2cccnc2)n1` [Example 66, 3-Cyclopropyl-N-(4-(1-ethyl-3-(pyridin-3-yl)-1H-pyrazol-4-yl)pyrimidin-2-yl)-2,3,4,5-tetrahydro-1H-benzo[d]azepin-7-amine], the IC50 was 6.4 nM.

Consider `CCn1cc(-c2ccnc(Nc3ccc4c(c3)OCCN(C)C4)n2)c(-c2cccnc2)n1` [Example 67, N-(4-(1-ethyl-3-(pyridin-3-yl)-1H-pyrazol-4-yl)pyrimidin-2-yl)-4-methyl-2,3,4,5-tetrahydrobenzo[f][1,4]oxazepin-8-amine], for which the IC50 stood at 5.3 nM.

Turning to `CCn1cc(-c2ccnc(Nc3ccc(N4CCC(C)(N(C)C)CC4)cc3)n2)c(-c2cccnc2)n1` [Example 68, N-(4-(4-(Dimethylamino)-4-methylpiperidin-1-yl)phenyl)-4-(1-ethyl-3-(pyridin-3-yl)-1H-pyrazol-4-yl)pyrimidin-2-amine], the IC50 was found to be 6.8 nM.

For the molecule `CCn1cc(-c2ccnc(Nc3ccc(N4CCN5CCC4CC5)cc3)n2)c(-c2cccnc2)n1` [Example 69, N-(4-(1,4-diazabicyclo[3.2.2]nonan-4-yl)phenyl)-4-(1-ethyl-3-(pyridin-3-yl)-1H-pyrazol-4-yl)pyrimidin-2-amine], the IC50 came out at 13 nM.

With `CCn1cc(-c2ccnc(Nc3ccc(-c4cnco4)cc3)n2)c(-c2cccnc2)n1` [Example 70, 4-(1-ethyl-3-(pyridin-3-yl)-1H-pyrazol-4-yl)-N-(4-(oxazol-5-yl)phenyl)pyrimidin-2-amine], the IC50 turned out to be 33.6 nM.

On to `FC(F)(F)OCCn1cc(-c2ccnc(Nc3ccc(N4CCNCC4)cc3)n2)c(-c2cccnc2)n1` [Example 72, N-(4-(Piperazin-1-yl)phenyl)-4-(3-(pyridin-3-yl)-1-(2-(trifluoromethoxy)ethyl)-1H-pyrazol-4-yl)pyrimidin-2-amine], for which the IC50 was determined as 13.4 nM.

Take `CCn1cc(-c2ccnc(Nc3ccc4c(c3)CNC4)n2)c(-c2cccnc2)n1` [Example 73, N-(4-(1-ethyl-3-(pyridin-3-yl)-1H-pyrazol-4-yl)pyrimidin-2-yl)isoindolin-5-amine]: the half-maximal inhibitory concentration (IC50) stood at 7.2 nM.

With `CC(=O)N1CCN(C(=O)c2ccc(Nc3nccc(-c4cn(CCc5ccccc5)nc4-c4cccnc4)n3)cc2)CC1` [Example 74, 1-(4-(4-((4-(1-phenethyl-3-(pyridin-3-yl)-1H-pyrazol-4-yl)pyrimidin-2-yl)amino)benzoyl)piperazin-1-yl)ethan-1-one], the half-inhibitory concentration (IC50) was 39 nM.

Turning to `COCCN1CCN(c2ccc(Nc3nccc(-c4cn(C5CCOC5)nc4-c4cccnc4)n3)cc2)CC1` (stereo not drawn) [Example 76, N-(4-(4-(2-methoxyethyl)piperazin-1-yl)phenyl)-4-(3-(pyridin-3-yl)-1-(tetrahydrofuran-3-yl)-1H-pyrazol-4-yl)pyrimidin-2-amine], the half-inhibitory concentration (IC50) was 46.1 nM.

In the case of `COCCN1CCN(c2ccc(Nc3nccc(-c4cn(CC5(C)COC5)nc4-c4cccnc4)n3)cc2)CC1` [Example 77], the IC50 is 51.3 nM.

In the case of `CCn1cc(-c2ccnc(Nc3ccc(N4CCN(CC5CCCN5C)CC4)cc3)n2)c(-c2cccnc2)n1` (stereo not drawn) [Example 78, 4-(1-Ethyl-3-(pyridin-3-yl)-1H-pyrazol-4-yl)-N-(4-(4-((1-methylpyrrolidin-2-yl)methyl)piperazin-1-yl)phenyl)pyrimidin-2-amine], the IC50 is 12.7 nM.

For orientation: IC50 means the concentration needed to halve the response being measured.
